The structures appear in SMILES notation. A value given as a limit tells only on which side of the number the result lay.

For test [1], the system named is C. ammoniagenes. Kind of test: MIC, resazurin broth microdilution. The format is cell-based, Corynebacterium ammoniagenes. As to conditions: C. ammoniagenes.
Test [2] has as its system C. glutamicum. Description: MIC, resazurin broth microdilution. Format: cell-based, Corynebacterium glutamicum. Particulars: media BHI.
In test [3] the test system is C. diphteriae. Kind of test: MIC, resazurin broth microdilution. Format: cell-based, Corynebacterium diphteriae.
In test [4] the test system is M. tuberculosis. Kind of test: MIC, resazurin broth microdilution. The format is cell-based, Mycobacterium tuberculosis. As to conditions: M. tuberculosis, media 7H9G-ADC.
For test [5], the system named is M. smegmatis. Kind of test: MIC, resazurin broth microdilution. The format is cell-based, Mycobacterium smegmatis. As to conditions: media 7H9G-ADC.
In test [6] the test system is S. pneumoniae. Kind of test: MIC, resazurin broth microdilution. The format is cell-based, Streptococcus pneumoniae.
Test [7] has as its system E. coli. Kind of test: MIC, resazurin broth microdilution. Particulars: media LB. Format: cell-based, Escherichia coli.
Test [8] relates to L. monocytogenes. Kind of test: MIC, resazurin broth microdilution. Format: cell-based, Listeria monocytogenes. As to conditions: media BHI.
The subject of test [9] is P. aeruginosa. Kind of test: MIC, resazurin broth microdilution. The format is cell-based, Pseudomonas aeruginosa. As to conditions: media MH.
In test [10] the test system is S. thyphimurium. Kind of test: MIC, resazurin broth microdilution. The format is cell-based, Salmonella thyphimurium. Particulars: media MH.
The test system of test [11] is S. aureus. Description: MIC, resazurin broth microdilution. Format: cell-based, Staphylococcus aureus. Particulars: media MH.
For test [12], the target named is T1, CaFADS (Corynebacterium ammoniagenes, UniProt Q59263).
T1 construct: made in house; host or cells: Escherichia coli BL21(DE3)
Kind of test: Differential scanning fluorescence (thermal denaturation) binding to CaFADS. As to conditions: 2 μM CaFADS, compound up to 250 μM. Here is the method: Interaction of compounds with CaFADS was evaluated using fluorescence thermal denaturation, on the bases of the shifts in denaturation midpoints of thermal curves of the protein [65]. Denaturations were performed in a Stratagene Agilent Mx3005p qPCR instrument (Santa Clara, US) following SYPR Orange (ThermoFisher Scientific) emission fluorescence (excitation at 492 nm and emission at 610 nm), which greatly increases when this probe binds to protein hydrophobic regions becoming solvent exposed upon thermal unfolding. Solutions containing 2 μM CaFADS with the studied compound in an increasing 5-250 μM concentration range (2% residual final concentration of DMSO) and 5xSYPR Orange in 20 mM PIPES pH 7.0, 10 mM MgCl2, with a 100 μL total volume were dispensed into 96-well microplates (BRAND 96-well plates pure grade™). After an initial 1 min incubation at 25 °C within the equipment, unfolding curves were registered from 25 to 100 °C at 1 °C·min^−1. Control experiments with CaFADS samples with/without DMSO were routinely performed in each microplate. For those compounds shifting midpoint denaturation temperature, Tm, the dissociation constant, Kd, was predicted by fitting the data to the equation [66] ΔTm/Tm=NRTm0/ΔH0ln(1+[L]/Kd), (2) which estimates the extent of the ligand-induced protein stabilization/destabilization. ΔTm=|Tm-Tm0| with Tm0 and Tm being the midpoint denaturation temperatures in the absence and the presence of ligand, respectively, and ΔH0 the unfolding enthalpy of the protein in the absence of ligand.

T1 sequence (Q59263 whole entry): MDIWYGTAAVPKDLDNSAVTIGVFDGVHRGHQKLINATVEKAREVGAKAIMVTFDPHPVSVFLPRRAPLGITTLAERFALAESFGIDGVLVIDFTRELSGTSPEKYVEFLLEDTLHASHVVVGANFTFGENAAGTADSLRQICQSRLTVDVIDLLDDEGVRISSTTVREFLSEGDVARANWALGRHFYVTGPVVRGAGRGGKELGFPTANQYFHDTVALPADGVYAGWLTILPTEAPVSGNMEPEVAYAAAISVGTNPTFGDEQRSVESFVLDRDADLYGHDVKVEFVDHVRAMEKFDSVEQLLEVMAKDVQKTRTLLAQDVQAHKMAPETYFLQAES

`O=C(O)CC(CC(=O)Nc1ccc2ccccc2n1)c1ccccc1` (centres unmarked) [Compound C4, 5-oxo-3-phenyl-5-(2-quinolinylamino)pentanoic acid]: the minimal inhibitory concentration (MIC) is above 64 µM in [1] (media BHI); above 256 µM in test [1] (media MH); above 256 µM in test [1] (media MH+DFO); above 256 µM in test [1] (media MH+DIP); above 256 µM in test [1] (media MH+DIP+DFO); above 64 µM in test [2]. Besides, the MIC is listed as above 64 µM in test [3] (media BHI); above 256 µM in [3] (media MH); above 256 µM in test [4]; above 256 µM in [5]; above 256 µM in [6] (media BHI); above 256 µM in [6] (media MH). Also, the MIC is above 64 µM in [7]; above 64 µM in test [8]; above 256 µM in test [9]; above 256 µM in [10]; above 256 µM in test [11].

Take `N#CC(=Cc1cccc([N+](=O)[O-])c1)c1nn(-c2ccccc2)c(-n2cccc2)c1C#N` [Compound C8, 3-[1-cyano-2-(3-nitrophenyl)vinyl]-1-phenyl-5-(1H-pyrrol-1-yl)-1H-pyrazole-4-carbonitrile]: the MIC was above 64 µM in test [1] (media BHI); above 256 µM in test [1] (media MH); above 256 µM in [1] (media MH+DFO); above 256 µM in [1] (media MH+DIP); above 256 µM in test [1] (media MH+DIP+DFO); above 64 µM in test [2]. The minimum inhibitory concentration (MIC) in test [3] (media BHI) is reported as above 64 µM; in [3] (media MH) it was above 256 µM; in test [4], above 256 µM; in test [5], above 256 µM; in test [6] (media BHI) it was above 256 µM; in test [6] (media MH), above 256 µM. Besides, the MIC is above 64 µM in test [7]; above 64 µM in [8]; above 256 µM in test [9]; above 256 µM in test [10]; above 256 µM in test [11].

In the case of `N#Cc1ccc(C=NNC(=O)c2cnn(-c3ccc([N+](=O)[O-])cc3)c2C(F)(F)F)cc1` [Compound C10, N'-[(4-cyanophenyl)methylene]-1-(4-nitrophenyl)-5-(trifluoromethyl)-1H-pyrazole-4-carbohydrazide], the MIC in test [1] (media BHI) is above 64 µM; in test [1] (media MH), above 256 µM; in [1] (media MH+DFO), above 256 µM; in test [1] (media MH+DIP) it was above 256 µM; in test [1] (media MH+DIP+DFO), above 256 µM; in test [2] it was above 64 µM. Further, the minimal inhibitory concentration (MIC) in test [3] (media BHI) was above 64 µM; in [3] (media MH), above 256 µM; in test [4], above 256 µM; in [5], above 256 µM; in test [6] (media BHI), above 256 µM; in [6] (media MH), above 256 µM. The MIC in [7] is above 64 µM; in test [8], above 64 µM; in [9], above 256 µM; in test [10], above 256 µM; in test [11] it was above 256 µM.

As to `COc1ccc(NC(=O)CC(CC(=O)O)c2cc(OC)c(OC)c(OC)c2)cc1` (centres unmarked) [Compound C11, 5-(4-methoxyanilino)-5-oxo-3-(3,4,5-trimethoxyphenyl)pentanoic acid], the MIC in test [1] (media BHI) is reported as above 64 µM; in test [1] (media MH) it was above 256 µM; in test [1] (media MH+DFO), above 256 µM; in test [1] (media MH+DIP) it was above 256 µM; in test [1] (media MH+DIP+DFO) it was above 256 µM; in [2], above 64 µM. The MIC in test [3] (media BHI) is given as above 64 µM; in test [3] (media MH) it was above 256 µM; in test [4] it was above 256 µM; in [5], above 256 µM; in test [6] (media BHI), above 256 µM; in test [6] (media MH), above 256 µM. Moreover, the MIC in test [7] is reported as above 64 µM; in [8], above 64 µM; in test [9], above 256 µM; in test [10], above 256 µM; in test [11] it was above 256 µM.

As to `CC1=C(C)CC(C(=O)Nc2ccc(Oc3ccc(Cl)cc3)cc2)C(C(=O)O)C1` (centres unmarked) [Compound C12, 6-{[4-(4-chlorophenoxy)anilino]carbonyl}-3,4-dimethylcyclohex-3-ene-1-carboxylic acid], the “Tm shift of CaFADS thermal denaturation” value in test [12] is “neither binder nor inhibitor”. Besides, the minimal inhibitory concentration (MIC) in [1] (media MH), in test [1] (media MH+DFO), in test [1] (media MH+DIP), in [1] (media MH+DIP+DFO), in test [2] and in test [3] (media MH) was above 256 µM in each case. Also, the MIC in test [4], in test [7], in test [8], in test [9], in [10] and in test [11] was above 256 µM throughout.

Turning to `O=C(O)C(=Cc1ccc2c(c1)OCO2)NC(=O)c1ccccc1` [Compound C14, 3-(1,3-benzodioxol-5-yl)-2-(benzoylamino)acrylic acid], the MIC in test [1] (media BHI) is above 64 µM; in test [1] (media MH), above 256 µM; in test [1] (media MH+DFO), above 256 µM; in test [1] (media MH+DIP), above 256 µM; in test [1] (media MH+DIP+DFO), above 256 µM; in [2], above 64 µM. In addition, the MIC is reported as above 64 µM in test [3] (media BHI); above 256 µM in test [3] (media MH); above 256 µM in test [4]; above 256 µM in test [5]; above 256 µM in test [6] (media BHI); above 256 µM in [6] (media MH). Also, the MIC in test [7] was above 64 µM; in test [8], above 64 µM; in [9], above 256 µM; in test [10] it was above 256 µM; in test [11], above 256 µM.

Consider `NS(=O)(=O)c1ccc(NC(=O)CC(CC(=O)O)c2ccccc2)cc1` (centres unmarked) [Compound C17, 5-[4-(aminosulfonyl)anilino]-5-oxo-3-phenylpentanoic acid], for which the MIC in test [1] (media MH), in [1] (media MH+DFO), in [1] (media MH+DIP), in test [1] (media MH+DIP+DFO), in [2] and in test [3] (media MH) was above 256 µM throughout. For the same molecule, the minimum inhibitory concentration (MIC) in [4], in [7], in test [8], in [9], in [10] and in [11] was above 256 µM each time.

For `Cc1ccc(OCC2SCCN2C(=O)c2c(-c3c(Cl)cccc3Cl)noc2C)c([N+](=O)[O-])c1` (centres unmarked) [Compound C25, [3-(2,6-dichlorophenyl)-5-methylisoxazol-4-yl]{2-[(4-methyl-2-nitrophenoxy)methyl]-1,3-thiazolan-3-yl}methanone], the minimum inhibitory concentration (MIC) in test [1] (media MH), in [1] (media MH+DFO), in test [1] (media MH+DIP), in [1] (media MH+DIP+DFO), in test [2] and in [3] (media MH) was above 256 µM in each case. In addition, the minimal inhibitory concentration (MIC) in [4], in test [7], in test [8], in [9], in [10] and in [11] was above 256 µM throughout.
